This experiment concerns the target Cytochrome P450 2C9 (Homo sapiens, UniProt P11712). Kind of experiment: Inhibition of CYP2C9. It is filed as ADME.

Chain of Cytochrome P450 2C9 (P11712 whole entry): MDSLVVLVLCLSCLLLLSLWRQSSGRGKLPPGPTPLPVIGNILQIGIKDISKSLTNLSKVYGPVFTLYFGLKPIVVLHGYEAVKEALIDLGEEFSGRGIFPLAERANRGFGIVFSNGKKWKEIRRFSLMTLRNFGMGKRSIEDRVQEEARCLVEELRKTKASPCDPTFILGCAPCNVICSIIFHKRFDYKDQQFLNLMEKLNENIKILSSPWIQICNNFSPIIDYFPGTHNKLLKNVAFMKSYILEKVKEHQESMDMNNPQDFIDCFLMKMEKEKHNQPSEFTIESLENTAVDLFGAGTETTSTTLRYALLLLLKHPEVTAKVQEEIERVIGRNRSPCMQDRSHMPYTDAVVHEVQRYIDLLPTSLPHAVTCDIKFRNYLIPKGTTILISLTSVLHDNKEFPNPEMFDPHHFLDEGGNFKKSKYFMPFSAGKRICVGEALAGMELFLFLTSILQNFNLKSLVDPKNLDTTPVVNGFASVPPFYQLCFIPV

Take `CCc1oc2ccccc2c(=O)c1C(=O)c1cc(Br)c(O)c(Br)c1`: the affinity, expressed as Ki, was 0.101 µM.

These data come from ChEMBL document CHEMBL1140752, “High confidence predictions of drug-drug interactions: predicting affinities for cytochrome P450 2C9 with multiple computational methods” (J Med Chem, 2008).
